This passage reports Ki results from patent publication US20240376090A1, “ISOXAZOLE DERIVATIVES AS MODULATORS OF THE 5-HT2A SEROTONIN RECEPTOR USEFUL FOR THE TREATMENT OF DISORDERED RELATED THERETO” (Arena Pharmaceuticals, Inc., priority 2020, published 2024).

Each structure is given as a SMILES string.

For orientation: Ki means a dissociation constant, usually derived from enzyme kinetics or from competition with a known ligand.

This assay deals with 5-HT2A receptor (Homo sapiens (Human), UniProt P28223). In words: Radioligand binding assay ([3H]5-HT competition), 5-HT2A. Conditions: [3H]5-HT radioligand, membranes of HEK293 cells expressing recombinant 5-HT2A; Ki from IC50 by Cheng-Prusoff; read-out: 5-HT2A serotonin binding Ki value. The protocol: Competition binding experiments consisted of addition of 5 μL of serially diluted test compound, 50 μL of radioligand stock diluted in Assay Buffer (20 mM HEPES, pH 7.4, 10 mM MgCl2), and 145 μL of diluted membrane expressing the receptor of interest to 96-well microtiter plates, which were then incubated for one hour at room temperature. Assay incubations were terminated by rapid filtration through Perkin Elmer GF/C filtration plates under vacuum pressure using a 96-well Packard filtration apparatus, followed by washing the filter plates several times with ice cold Assay Buffer. Plates were then dried at 45° C. for a minimum of four hours. Finally, 25 μL of BetaScint scintillation cocktail was added to each well and the plates were counted in a Packard TopCount scintillation counter. In each competition study, test compounds were assayed at 10 concentrations with three replicates at each test concentration. Dose-response curves were constructed to determine IC50 values and these were converted to corresponding Ki values using the Cheng-Prusoff equation.
5-HT2A receptor, sequence (P28223 whole entry): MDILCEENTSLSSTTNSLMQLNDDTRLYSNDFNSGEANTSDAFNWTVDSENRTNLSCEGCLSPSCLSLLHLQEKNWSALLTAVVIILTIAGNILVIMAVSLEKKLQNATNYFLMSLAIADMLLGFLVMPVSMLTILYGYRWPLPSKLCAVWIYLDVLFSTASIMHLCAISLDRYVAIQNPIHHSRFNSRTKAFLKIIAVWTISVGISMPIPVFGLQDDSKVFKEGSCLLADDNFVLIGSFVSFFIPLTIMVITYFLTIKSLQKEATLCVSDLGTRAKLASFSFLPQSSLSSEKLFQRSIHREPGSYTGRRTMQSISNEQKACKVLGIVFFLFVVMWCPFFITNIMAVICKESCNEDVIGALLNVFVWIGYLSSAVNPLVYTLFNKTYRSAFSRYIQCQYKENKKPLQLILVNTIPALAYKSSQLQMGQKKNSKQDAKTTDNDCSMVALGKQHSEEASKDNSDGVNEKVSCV
As for `Cc1noc(C)c1-c1cc(NC(=O)C2CC2)ccc1OC[C@H]1COCCN1` [Compound 173, (R)—N-(3-(3,5-dimethylisoxazol-4-yl)-4-(morpholin-3-ylmethoxy)phenyl)cyclopropanecarboxamide], the Ki is 96.9 nM.

For `Cc1noc(C)c1-c1cc(NC(=O)C2CC2)ccc1OCC1CCN1` (centres unmarked) [Compound 174, N-[4-(azetidin-2-ylmethoxy)-3-(3,5-dimethylisoxazol-4-yl)phenyl]cyclopropanecarboxamide], the Ki came to 48 nM.

Regarding `Cc1noc(C)c1-c1cc(NC(=O)C2CC2)ccc1OC[C@H]1CCCN1` [Compound 175, (R)—N-(3-(3,5-dimethylisoxazol-4-yl)-4-(pyrrolidin-2-ylmethoxy)phenyl)cyclopropanecarboxamide], the Ki was 41.6 nM.

For the compound `Cc1noc(C)c1-c1cc(NC(=O)C2CC2)ccc1OC[C@@H]1CCCN1` [Compound 176, (S)—N-(3-(3,5-dimethylisoxazol-4-yl)-4-(pyrrolidin-2-ylmethoxy)phenyl)cyclopropanecarboxamide], the Ki turned out to be 395 nM.

With `Cc1noc(C)c1-c1cc(NC(=O)c2ccnn2C)ccc1OC[C@H]1CCCCN1` [Compound 177, N-[3-(3,5-dimethylisoxazol-4-yl)-4-[[(2R)-2-piperidyl]methoxy]phenyl]-2-methyl-pyridinerazole-3-carboxamide], the inhibition constant Ki is 4.22 nM.

Turning to `Cc1noc(C)c1-c1cc(NC(=O)C2CC2)ccc1O[C@H]1CCCNC1` [Compound 178, N-[3-(3,5-dimethylisoxazol-4-yl)-4-[[(3S)-3-piperidyl]oxy]phenyl]cyclopropanecarboxamide], the Ki was 718 nM.

On to `Cc1noc(C)c1-c1cc(NC(=O)C2CC2)ccc1O[C@@H]1CCCNC1` [Compound 179, (R)—N-(3-(3,5-dimethylisoxazol-4-yl)-4-(piperidin-3-yloxy)phenyl)cyclopropanecarboxamide], for which the Ki turned out to be 85.9 nM.

`Cc1noc(C)c1-c1cc(NC(=O)C2CC2)ccc1O[C@H]1CCNC1` [Compound 180, (S)—N-(3-(3,5-dimethylisoxazol-4-yl)-4-(pyrrolidin-3-yloxy)phenyl)cyclopropanecarboxamide]: the Ki stood at 186 nM.

Turning to `Cc1noc(C)c1-c1cc(NC(=O)C2CC2)ccc1O[C@@H]1CCNC1` [Compound 181, (R)—N-(3-(3,5-dimethylisoxazol-4-yl)-4-(pyrrolidin-3-yloxy)phenyl)cyclopropanecarboxamide], the inhibition constant Ki was found to be 10 nM.

Regarding `Cc1noc(C)c1-c1cc(NC(=O)c2cnoc2)ccc1OC[C@H]1CCCCN1` [Compound 182, N-[3-(3,5-dimethylisoxazol-4-yl)-4-[[(2R)-2-piperidyl]methoxy]phenyl]isoxazole-4-carboxamide], the Ki was 61.5 nM.

`Cc1nocc1C(=O)Nc1ccc(OC[C@H]2CCCCN2)c(-c2c(C)noc2C)c1` [Compound 183, (R)—N-(3-(3,5-dimethylisoxazol-4-yl)-4-(piperidin-2-ylmethoxy)phenyl)-3-methylisoxazole-4-carboxamide]: the Ki was 5.09 nM.

For the compound `Cc1noc(C)c1-c1cc(NC(=O)c2cnoc2C)ccc1OC[C@H]1CCCCN1` [Compound 184, (R)—N-(3-(3,5-dimethylisoxazol-4-yl)-4-(piperidin-2-ylmethoxy)phenyl)-5-methylisoxazole-4-carboxamide], the Ki was 10.5 nM.

On to `Cc1noc(C)c1-c1cc(NC(=O)c2ncoc2C)ccc1OC[C@H]1CCCCN1` [Compound 185, (R)—N-(3-(3,5-dimethylisoxazol-4-yl)-4-(piperidin-2-ylmethoxy)phenyl)-5-methyloxazole-4-carboxamide], for which the Ki was 8.77 nM.

As for `Cc1noc(C)c1-c1cc(NC(=O)c2cnsc2)ccc1OC[C@H]1CCCCN1` [Compound 186, (R)—N-(3-(3,5-dimethylisoxazol-4-yl)-4-(piperidin-2-ylmethoxy)phenyl)isothiazole-4-carboxamide], the Ki amounted to 7.71 nM.

`Cc1noc(C)c1-c1cc(NC(=O)c2ncsc2C)ccc1OC[C@H]1CCCCN1` [Compound 188, (R)—N-(3-(3,5-dimethylisoxazol-4-yl)-4-(piperidin-2-ylmethoxy)phenyl)-5-methylthiazole-4-carboxamide]: the Ki was 4.5 nM.

With `Cc1noc(C)c1-c1cc(NC(=O)[C@@H]2C[C@H]2F)ccc1OC[C@H]1CCCCN1` [Compound 190, (1S,2R)—N-(3-(3,5-dimethylisoxazol-4-yl)-4-(((R)-piperidin-2-yl)methoxy)phenyl)-2-fluorocyclopropane-1-carboxamide], the inhibition constant (Ki) came out at 1.19 nM.

As for `Cc1ncsc1C(=O)Nc1ccc(OC[C@H]2CCCCN2)c(-c2c(C)noc2C)c1` [Compound 193, (R)—N-(3-(3,5-dimethylisoxazol-4-yl)-4-(piperidin-2-ylmethoxy)phenyl)-4-methylthiazole-5-carboxamide], the Ki amounted to 2.69 nM.

With `Cc1nc(C)c(C(=O)Nc2ccc(OC[C@H]3CCCCN3)c(-c3c(C)noc3C)c2)s1` [Compound 194, (R)—N-(3-(3,5-dimethylisoxazol-4-yl)-4-(piperidin-2-ylmethoxy)phenyl)-2,4-dimethylthiazole-5-carboxamide], the Ki amounted to 32.2 nM.

With `Cc1cnoc1C(=O)Nc1ccc(OC[C@H]2CCCCN2)c(-c2c(C)noc2C)c1` [Compound 195, (R)—N-(3-(3,5-dimethylisoxazol-4-yl)-4-(piperidin-2-ylmethoxy)phenyl)-4-methylisoxazole-5-carboxamide], the Ki was 15.2 nM.

Take `Cc1noc(C)c1-c1cc(NC(=O)C(C)(C)F)ccc1OC[C@H]1CCCCN1` [Compound 199, N-[3-(3,5-dimethylisoxazol-4-yl)-4-[[(2R)-2-piperidyl]methoxy]phenyl]-2-fluoro-2-methyl-propanamide]: the Ki turned out to be 35.6 nM.

For the compound `Cc1noc(C)c1-c1cc(NC(=O)C2(CF)CC2)ccc1OC[C@H]1CCCCN1` [Compound 200, (R)—N-(3-(3,5-dimethylisoxazol-4-yl)-4-(piperidin-2-ylmethoxy)phenyl)-1-(fluoromethyl)cyclopropane-1-carboxamide], the Ki was found to be 9.08 nM.

Take `Cc1noc(C)c1-c1cc(NC(=O)C[C@@H]2CCOC2)ccc1OC[C@H]1CCCCN1` [Compound 201, N-(3-(3,5-dimethylisoxazol-4-yl)-4-(((R)-piperidin-2-yl)methoxy)phenyl)-2-((S)-tetrahydrofuran-3-yl)acetamide]: the Ki was determined as 11.9 nM.

For the compound `Cc1noc(C)c1-c1cc(NC(=O)C2CC23CCOCC3)ccc1OC[C@H]1CCCCN1` (stereo partly drawn) [Compound 203, N-(3-(3,5-dimethylisoxazol-4-yl)-4-(((R)-piperidin-2-yl)methoxy)phenyl)-6-oxaspiro[2.5]octane-1-carboxamide], the Ki was determined as 27.8 nM.

With `COCC1(C(=O)Nc2ccc(OC[C@H]3CCCCN3)c(-c3c(C)noc3C)c2)CC1` [Compound 204, (R)—N-(3-(3,5-dimethylisoxazol-4-yl)-4-(piperidin-2-ylmethoxy)phenyl)-1-(methoxymethyl)cyclopropane-1-carboxamide], the Ki is 25 nM.

For `COC1(CC(=O)Nc2ccc(OC[C@H]3CCCCN3)c(-c3c(C)noc3C)c2)CCC1` [Compound 205, (R)—N-(3-(3,5-dimethylisoxazol-4-yl)-4-(piperidin-2-ylmethoxy)phenyl)-2-(1-methoxycyclobutyl)acetamide], the Ki amounted to 105 nM.

For `Cc1noc(C)c1-c1cc(NC(=O)C(F)c2ccccc2)ccc1OC[C@H]1CCCCN1` (stereo partly drawn) [Compound 206, N-(3-(3,5-dimethylisoxazol-4-yl)-4-(((R)-piperidin-2-yl)methoxy)phenyl)-2-fluoro-2-phenylacetamide], the Ki is 3.4 nM.

Regarding `Cc1nc(C)c(C(=O)Nc2ccc(OC[C@H]3CCCCN3)c(-c3c(C)noc3C)c2)o1` [Compound 207, (R)—N-(3-(3,5-dimethylisoxazol-4-yl)-4-(piperidin-2-ylmethoxy)phenyl)-2,4-dimethyloxazole-5-carboxamide], the Ki stood at 235 nM.

As for `Cc1cnn(C)c1C(=O)Nc1ccc(OC[C@H]2CCCCN2)c(-c2c(C)noc2C)c1` [Compound 208, (R)—N-(3-(3,5-dimethylisoxazol-4-yl)-4-(piperidin-2-ylmethoxy)phenyl)-1,4-dimethyl-1H-pyrazole-5-carboxamide], the inhibition constant Ki stood at 9.66 nM.

Turning to `CCc1cc(C(=O)Nc2ccc(OC[C@H]3CCCCN3)c(-c3c(C)noc3C)c2)n(C)n1` [Compound 209, (R)—N-(3-(3,5-dimethylisoxazol-4-yl)-4-(piperidin-2-ylmethoxy)phenyl)-3-ethyl-1-methyl-1H-pyrazole-5-carboxamide], the Ki is 36.3 nM.

For the compound `Cc1nc(C(=O)Nc2ccc(OC[C@H]3CCCCN3)c(-c3c(C)noc3C)c2)c(C)s1` [Compound 210, (R)—N-(3-(3,5-dimethylisoxazol-4-yl)-4-(piperidin-2-ylmethoxy)phenyl)-2,5-dimethylthiazole-4-carboxamide], the Ki is 86.3 nM.

For the compound `Cc1noc(C)c1-c1cc(NC(=O)c2cnn(C)c2C)ccc1OC[C@H]1CCCCN1` [Compound 211, (R)—N-(3-(3,5-dimethylisoxazol-4-yl)-4-(piperidin-2-ylmethoxy)phenyl)-1,5-dimethyl-1H-pyrazole-4-carboxamide], the inhibition constant (Ki) worked out at 40.9 nM.

On to `Cc1noc(C)c1-c1cc(NC(=O)c2ncnn2C)ccc1OC[C@H]1CCCCN1` [Compound 212, (R)—N-(3-(3,5-dimethylisoxazol-4-yl)-4-(piperidin-2-ylmethoxy)phenyl)-1-methyl-1H-1,2,4-triazole-5-carboxamide], for which the Ki stood at 38.6 nM.
